Measurements published in patent US9205069B2, “Inhibitors of anaphase promoting complex activity” (President and Fellows of Harvard College, priority 2009, dated 2015).

Legend:
[1] = test system: APC-Cdc20; test: in vitro ubiquitination assay with APC immunopurified from mitotic extract; format: biochemical, Xenopus; details: 200 μM, added into ubiquitination reaction
Excerpt: APC was immunoprecipitated from mitotic extract and tested in an in vitro ubiquitination assay.

[2] = molecular target: T1, human APC (Homo sapiens, UniProt P30260+Q13042+Q9UJX2+Q9UJX3); test: 3H-TAME binding to APC in asynchronous HeLa cell lysate
T1 construct: endogenous in cells; host or cells: asynchronous HeLa cells (lysate)
Excerpt: The same experiment was done as described in 3C using asynchronous Hela cell lysate.

[3] = test system: interaction between APC and IR peptide; test: APC recruitment from interphase extract by IR peptide resin; format: binding, Xenopus; details: 200 μM
Method: Top panel: Iodoacetyl resin was coupled with cysteine, a 21aa C-terminal peptide of Cdh1 or a 19aa peptide missing the C-terminal IR tail. The resin was incubated with interphase extract and the amount of Cdc27 bound on resin was analyzed.

[4] = test system: Xenopus APC; test: 3H-TAME binding to APC in interphase extract (Cdc27 immunoprecipitation, scintillation counting); details: 200 nM 3H TAME
Method: Interphase extract was subjected to three rounds of immunoprecipitation with Cdc27 antibody. […] The specific counts associated with the beads were determined by scintillation counting.
(§1) The specific counts associated with the beads were determined by scintillation counting.
as §1
In parallel, the amount of immunoprecipitated Cdc27 was determined by immunoblot.

[5] = test system: APC-dependent proteolysis; test: cyclin B-luciferase degradation in mitotic Xenopus egg extract (luciferase assay); details: derivatives tested at 200 μM
Method: Samples were collected at 60 minutes and the remaining reporter level was measured by luminescence. Interphase extract was used as a negative control.

[6] = test system: cyclin B1 degradation and Cdc27 phosphorylation; test: mitotic arrest in Xenopus extract after MPF addition (Western blot); format: biochemical; details: 200 μM, interphase extract plus MPF
[7] = test system: APC-Cdh1; test: in vitro ubiquitination assay with interphase APC activated by recombinant Cdh1; format: biochemical, Xenopus; details: 200 μM, added into ubiquitination reaction
Excerpt: APC was then immunoprecipitated and tested in an in vitro ubiquitination assay.

[8] = test system: proteasomal degradation of ubiquitinated cyclin B1; test: degradation of pre-ubiquitinated 35S-cyclin B1 in interphase extract; format: biochemical, Xenopus; details: TAME 200 μM
Method: At indicated time points, all protein was precipitated and the level of radioactivity in supernatant was measured by scintillation counting. MG262 was used as a positive control.
A purified MPF complex containing 35S-labeled cyclin B1 was ubiquitinated by APC in a reconstituted ubiquitination system, and then added to interphase Xenopus extract in the presence or absence of inhibitors.

Compound	APC ligase activity, compound added directly to reconstituted ubiquitination assay [1]	competition with specific 3H-TAME binding to human APC [2]	APC recruitment by IR peptide resin [3]	competition with specific binding of 3H-TAME to Xenopus APC [4]	activity of TAME derivatives in luciferase assay [5]	cyclin B1 and Cdc27 phosphorylation after MPF addition [6]	APC-Cdh1 activity, compound added directly to reconstituted assay [7]	degradation of pre-ubiquitinated cyclin B1 [8]
COC(=O)[C@H](CCCNC(=N)N)NC(C)=O [AAME, acetyl-L-arginine methylester]	did not inhibit APC	did not	no effect	did not	lowest activity	degraded by 30 min	did not inhibit APC	–
CC(C)C[C@H](NC(=O)[C@H](CC(C)C)NC(=O)[C@H](CC(C)C)NC(=O)OCc1ccccc1)B(O)O [MG262]	–	–	–	–	–	–	–	strongly inhibited
